In US20260083851A1 (AVILAR THERAPEUTICS, INC., priority 2022, published 2026):

target: T1, ASGP receptor (biotinylated ASGPR) (Homo sapiens, UniProt P07306); assay type: binding; details: SPR, Biacore 8K, 25° C.; Table 1A; read-out: ASGPR KD
T1 construct: biotin (biotinylated)
T1 sequence (P07306 1-291): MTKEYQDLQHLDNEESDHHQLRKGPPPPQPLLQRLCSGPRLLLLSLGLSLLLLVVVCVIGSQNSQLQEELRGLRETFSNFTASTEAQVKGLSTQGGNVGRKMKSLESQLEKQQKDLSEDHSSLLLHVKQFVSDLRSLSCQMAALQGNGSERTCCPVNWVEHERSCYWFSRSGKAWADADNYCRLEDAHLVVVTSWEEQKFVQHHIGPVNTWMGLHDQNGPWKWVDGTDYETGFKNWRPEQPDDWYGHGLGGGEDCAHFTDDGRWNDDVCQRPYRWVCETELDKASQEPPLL

| Kd [µM] | SMILES |
| --- | --- |
| < 10 | O[C@@H]1[C@H](O)[C@@H](Nc2cncc(C(F)(F)F)n2)CO[C@@H]1CN1CCCNCC1 [A68, (2R,3R,4R,5S)-2-((1,4-diazepan-1-yl)methyl)-5-((6-(trifluoromethyl)pyrazin-2-yl)amino)tetrahydro-2H-pyran-3,4-diol] |
| < 10 | O=C(O)c1ccc2c(c1)C(F)(F)c1cc(C(=O)NC[C@H]3OC[C@H](Nc4cncc(C(F)(F)F)n4)[C@@H](O)[C@H]3O)ccc1-2 [A52] |
| < 10 | O=C(NC[C@H]1OC[C@H](Nc2cncc(C(F)(F)F)n2)[C@@H](O)[C@H]1O)c1ccc2c(n1)CCNC2 [A77, N-(((2R,3R,4R,5S)-3,4-dihydroxy-5-((6-(trifluoromethyl)pyrazin-2-yl)amino)tetrahydro-2H-pyran-2-yl)methyl)-5,6,7,8-tetrahydro-1,6-naphthyridine-2-carboxamide] |
| < 10 | OC[C@H]1OC[C@H](Nc2cncc(Br)n2)[C@@H](O)[C@H]1O [A138, (2R,3R,4R,5S)-5-((6-bromopyrazin-2-yl)amino)-2-(hydroxymethyl) tetrahydro-2H-pyran-3,4-diol] |
| < 10 | O=C(NC[C@H]1OC[C@H](Nc2cncc(C(F)(F)F)n2)[C@@H](O)[C@H]1O)c1cc(C(F)(F)F)n[nH]1 [A29, N-(((2R,3R,4R,5S)-3,4-dihydroxy-5-((6-(trifluoromethyl)pyrazin-2-yl)amino)tetrahydro-2H-pyran-2-yl)methyl)-3-(trifluoromethyl)-1H-pyrazole-5-carboxamide] |
| < 10 | O[C@@H]1[C@H](O)[C@@H](Nc2cncc(C(F)(F)F)n2)CO[C@@H]1COCCOCCNc1cnccn1 [A56, (2R,3R,4R,5S)-2-((2-(2-(pyrazin-2-ylamino)ethoxy)ethoxy)methyl)-5-((6-(trifluoromethyl)pyrazin-2-yl)amino)tetrahydro-2H-pyran-3,4-diol] |
| < 10 | O=C(NC[C@H]1OC[C@H](Nc2cncc(C(F)(F)F)n2)[C@@H](O)[C@H]1O)c1ccc2c(c1)CCNC2 [A3, N-(((2R,3R,4R,5S)-3,4-dihydroxy-5-((6-(trifluoromethyl)pyrazin-2-yl)amino)tetrahydro-2H-pyran-2-yl)methyl)-1,2,3,4-tetrahydroisoquinoline-6-carboxamide] |
| < 10 | O=C(NC[C@H]1OC[C@H](Nc2cncc(C(F)(F)F)n2)[C@@H](O)[C@H]1O)c1cnccn1 [A20, N-(((2R,3R,4R,5S)-3,4-dihydroxy-5-((6-(trifluoromethyl)pyrazin-2-yl)amino)tetrahydro-2H-pyran-2-yl)methyl)pyrazine-2-carboxamide] |
| < 10 | O[C@@H]1[C@H](O)[C@@H](Nc2cncc(C(F)(F)F)n2)CO[C@@H]1CNc1cccnc1 [A28, (2R,3R,4R,5S)-2-((pyridin-3-ylamino)methyl)-5-((6-(trifluoromethyl)pyrazin-2-yl)amino)tetrahydro-2H-pyran-3,4-diol] |
| < 10 | O=C(O)c1cnc(C(=O)NC[C@H]2OC[C@H](Nc3cncc(C(F)(F)F)n3)[C@@H](O)[C@H]2O)nc1 [A84, 2-((((2R,3R,4R,5S)-3,4-dihydroxy-5-((6-(trifluoromethyl)pyrazin-2-yl)amino)tetrahydro-2H-pyran-2-yl)methyl)carbamoyl)pyrimidine-5-carboxylic acid] |
| < 10 | NCCOCCOCC(=O)NC[C@H]1OC[C@H](Nc2cncc(C(F)(F)F)n2)[C@@H](O)[C@H]1O [A57, 2-(2-(2-aminoethoxy)ethoxy)-N-(((2R,3R,4R,5S)-3,4-dihydroxy-5-((6-(trifluoromethyl)pyrazin-2-yl)amino)tetrahydro-2H-pyran-2-yl)methyl)acetamide] |
| < 10 | O=C(O)COCCOCC(=O)NC[C@H]1OC[C@H](Nc2ccnc(C(F)(F)F)n2)[C@@H](O)[C@H]1O [A116, 2-(2-(2-((((2R,3R,4R,5S)-3,4-dihydroxy-5-((2-(trifluoromethyl)pyrimidin-4-yl)amino)tetrahydro-2H-pyran-2-yl)methyl)amino)-2-oxoethoxy)ethoxy)acetic acid] |

same assay, conditions: SPR, Biacore 8K, 25° C.; Table 1B; read-out: ASGPR Kd

| Kd [µM] | SMILES |
| --- | --- |
| < 10 | OC[C@H]1OC[C@H](Oc2nccc(C(F)(F)F)n2)[C@@H](O)[C@H]1O [A140, (2R,3R,4S,5S)-2-(hydroxymethyl)-5-((4-(trifluoromethyl)pyrimidin-2-yl)oxy)tetrahydro-2H-pyran-3,4-diol] |
| < 10 | OC[C@H]1OC[C@H](Oc2cccc(C(F)(F)F)n2)[C@@H](O)[C@H]1O [A142, (2R,3R,4S,5S)-2-(hydroxymethyl)-5-((6-(trifluoromethyl)pyridin-2-yl)oxy)tetrahydro-2H-pyran-3,4-diol] |
| < 10 | NCc1ccc(N2CCC(CN3CCN(C[C@H]4OC[C@H](Nc5cncc(C(F)(F)F)n5)[C@@H](O)[C@H]4O)CC3)CC2)cc1 [A165, (2R,3R,4R,5S)-2-((4-((1-(4-(aminomethyl)phenyl)piperidin-4-yl)methyl)piperazin-1-yl)methyl)-5-((6-(trifluoromethyl)pyrazin-2-yl)amino)tetrahydro-2H-pyran-3,4-diol] |
| < 10 | O[C@@H]1[C@H](O)[C@@H](Nc2cncc(F)n2)CO[C@@H]1COc1cncc(F)n1 [A154, (2R,3R,4R,5S)-5-((6-fluoropyrazin-2-yl)amino)-2-(((6-fluoropyrazin-2-yl)oxy)methyl)tetrahydro-2H-pyran-3,4-diol] |

same assay, conditions: SPR, Biacore 8K, 25° C.; Table 1C, numeric bound; read-out: ASGPR KD

| Kd [µM] | SMILES |
| --- | --- |
| > 30 | CC#Cc1cccc(N[C@H]2CO[C@H](CO)[C@H](O)[C@@H]2O)n1 [A189, (2R,3R,4R,5S)-2-(hydroxymethyl)-5-((6-(prop-1-yn-1-yl)pyridin-2-yl)amino)tetrahydro-2H-pyran-3,4-diol] |

same assay, conditions: SPR, Biacore 8K, 25° C.; Table 1C; read-out: ASGPR KD

| Kd [µM] | SMILES |
| --- | --- |
| < 10 | [O-][S+](C[C@H]1OC[C@H](Oc2cccc(C(F)(F)F)n2)[C@@H](O)[C@H]1O)c1ccccc1 (stereo partly shown) [A311] |
| < 10 | OC[C@H]1O[C@H](Oc2ccc(N3CCNCC3)cc2)[C@H](Oc2cccc(C(F)(F)F)n2)[C@@H](O)[C@H]1O [A237] |
| < 10 | O[C@@H]1[C@H](O)[C@@H](Oc2cccc(C(F)(F)F)n2)CO[C@@H]1COc1cccnc1 [A301] |
| < 10 | O=C1c2ccccc2CN1C[C@H]1OC[C@H](Nc2cccc(C(F)(F)F)n2)[C@@H](O)[C@H]1O [A277] |
| < 10 | O=C(O)c1ccc(CN2CCN(C[C@H]3OC[C@H](Nc4cncc(C(F)(F)F)n4)[C@@H](O)[C@H]3O)CC2)cc1 [A199, 4-((4-(((2R,3R,4R,5S)-3,4-dihydroxy-5-((6-(trifluoromethyl)pyrazin-2-yl)amino)tetrahydro-2H-pyran-2-yl)methyl)piperazin-1-yl)methyl)benzoic acid] |
| < 10 | O=C(O)c1ccc(N2CCN(C[C@H]3OC[C@H](Nc4cncc(C(F)(F)F)n4)[C@@H](O)[C@H]3O)CC2)cc1 [A223, 4-(4-(((2R,3R,4R,5S)-3,4-dihydroxy-5-((6-(trifluoromethyl)pyrazin-2-yl)amino)tetrahydro-2H-pyran-2-yl)methyl)piperazin-1-yl) benzoic acid] |
| < 10 | O=C(O)c1ccc(-c2ccc(OC[C@H]3OC[C@H](Oc4cccc(C(F)(F)F)n4)[C@@H](O)[C@H]3O)cc2)cc1 [A228, 4′-(((2R,3R,4S,5S)-3,4-dihydroxy-5-((6-(trifluoromethyl)pyridin-2-yl)oxy)tetrahydro-2H-pyran-2-yl)methoxy)-[1,1′-biphenyl]-4-carboxylic acid] |
| < 10 | CN1CCN(C[C@H]2OC[C@H](Oc3cccc(C(F)(F)F)n3)[C@@H](O)[C@H]2O)CC1 [A249] |
| < 10 | O[C@@H]1[C@H](O)[C@@H](Oc2cccc(C(F)(F)F)n2)CO[C@@H]1COc1cnccn1 [A229, (2R,3R,4S,5S)-2-((pyrazin-2-yloxy)methyl)-5-((6-(trifluoromethyl)pyridin-2-yl)oxy)tetrahydro-2H-pyran-3,4-diol] |
| < 10 | C[C@H]1O[C@H](C#CCOc2ccc(C(=O)O)nn2)[C@H](Oc2cccc(C(F)(F)F)n2)[C@@H](O)[C@H]1O [A322] |
| < 10 | O=C(O)c1cnc(OC[C@H]2OC[C@H](Nc3cncc(C(F)(F)F)n3)[C@@H](O)[C@H]2O)cn1 [A187, 5-(((2R,3R,4R,5S)-3,4-dihydroxy-5-((6-(trifluoromethyl)pyrazin-2-yl)amino)tetrahydro-2H-pyran-2-yl)methoxy)pyrazine-2-carboxylic acid] |
| < 10 | O[C@@H]1[C@H](O)[C@@H](Oc2cccc(C(F)(F)F)n2)CO[C@@H]1CN1CCN(c2ncccn2)CC1 [A270] |
| < 10 | C[C@H]1O[C@@H](c2ncnc3c2ncn3Cc2ccccc2)[C@H](Oc2cccc(C(F)(F)F)n2)[C@@H](O)[C@H]1O [A335] |
| < 10 | O=C(O)c1cnc(OC[C@H]2OC[C@H](Oc3cccc(C(F)(F)F)n3)[C@@H](O)[C@H]2O)cn1 [A244] |

same assay, conditions: SPR, Biacore 8K, 25° C.; Table 1D; read-out: ASGPR KD

| Kd [µM] | SMILES |
| --- | --- |
| 10 to 100 | C#CCOc1nc(N[C@H]2CO[C@H](CO)[C@H](O)[C@@H]2O)cc(C(F)(F)F)n1 [A402] |
| < 10 | C[C@H]1O[C@H](C(=O)Nc2cn[nH]c2)[C@H](Nc2cccc(C(F)(F)F)n2)[C@@H](O)[C@H]1O [A424] |
| < 10 | O[C@@H]1[C@@H](Oc2cccc(C(F)(F)F)n2)CNC[C@@H]1O [A388] |

same assay, conditions: SPR, Biacore 8K, 25° C.; Table 1E; read-out: ASGPR KD

| Kd [µM] | SMILES |
| --- | --- |
| < 10 | C[C@H]1O[C@H](CCc2ccncc2)[C@H](Oc2cccc(C(F)(F)F)n2)[C@@H](O)[C@H]1O [A439] |
| < 10 | C[C@H]1O[C@H](COc2cccc(C(F)(F)F)n2)[C@H](Oc2cnccn2)[C@@H](O)[C@H]1O [A450] |

same assay, conditions: SPR; Table 2; read-out: ASGPR SPR Binding KD

| Kd [µM] | SMILES |
| --- | --- |
| < 0.1 | O=C(CCOCC(COCCC(=O)NC[C@H]1OC[C@H](Nc2cncc(C(F)(F)F)n2)[C@@H](O)[C@H]1O)NCC(=O)N1CCN(Cc2ccc(-c3c[nH]c4ccncc34)c(OCCc3ccc(-c4cccc5ccncc45)cc3)c2)CC1)NC[C@H]1OC[C@H](Nc2cncc(C(F)(F)F)n2)[C@@H](O)[C@H]1O [compound 21] |
